Experimental findings from ChEMBL document CHEMBL1136406, “Amide analogues of TSA: synthesis, binding mode analysis and HDAC inhibition” (Bioorg Med Chem Lett, 2003) are described below.

Structures are written as SMILES.

In the assay the target is Histone deacetylase.
Description: Inhibitory activity against histone deacetylase (HDAC)
As to `C[C@H](/C=C/C=C/C(=O)NO)NC(=O)c1ccc(N(C)C)cc1`, the IC50 – broadly, the concentration that gives 50% inhibition – worked out at 12187 nM. As to `CN(C)c1ccc(C(=O)NCCCCCC(=O)NO)cc1`, the IC50 is recorded as 152 nM. Next, `C[C@H](CCCCC(=O)NO)NC(=O)c1ccc(N(C)C)cc1`: 359 nM.
